Data: PubChem BioAssay AID1259411 (Chemical Carcinogenesis Research Information System (CCRIS), 2018)
Calls of active or inactive are those of the source. The rule behind the calls is not given here.

System: rodent carcinogenicity bioassays, tumor incidence
Test: CCRIS carcinogenicity studies
Settings: Route: ORAL
Method in brief: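 Archive of carcinogenicity, mutagenicity, tumor promotion and tumor inhibition results drawn from journals, NCI reports and other sources, expert-reviewed; covers 1985-2011 and is no longer updated.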

SMILES | carcinogen call (Species: MOUSE, Strain/Sex: NZB/FEMALE, Dose: 0, 1.56 NMOL IN DRINKING WATER 5D/WK FOR 8 WK FOR A TOTAL DOSE OF 0, 6.4 MILLIMOLAR/KG (STUDY DURATION: 400-600 D), Dose: 0, 1.56 NMOL IN DRINKING WATER 5D/WK FOR 8 WK FOR A TOTAL DOSE OF 0, 6.4 MILLIMOLAR/KG (STUDY DURATION: 400-600 D), Tumor Site: Type of Lesion: OROPHARYNX: PAPILLOMA OR CARCINOMA, ESOPHAGUS: PAPILLOMA OR CARCINOMA, STOMACH: SQUAMOUS CELL CARCINOMA, LIVER: HEPATOCE, Tumor Site: Type of Lesion: OROPHARYNX: PAPILLOMA OR CARCINOMA, ESOPHAGUS: PAPILLOMA OR CARCINOMA, STOMACH: SQUAMOUS CELL CARCINOMA, LIVER: HEPATOCE) | carcinogen call (Species: MOUSE, Strain/Sex: NZB/MALE, Dose: 0, 1.56 NMOL IN DRINKING WATER 5D/WK FOR 8 WK FOR A TOTAL DOSE OF 0, 5.4 MILLIMOLAR/KG (STUDY DURATION: 400-600 D), Dose: 0, 1.56 NMOL IN DRINKING WATER 5D/WK FOR 8 WK FOR A TOTAL DOSE OF 0, 5.4 MILLIMOLAR/KG (STUDY DURATION: 400-600 D), Tumor Site: Type of Lesion: ESOPHAGUS: PAPILLOMA OR CARCINOMA, STOMACH: SQUAMOUS CELL CARCINOMA, LIVER: HEPATOCELLULAR TUMOR, LUNG: ALVEOLAR ADENOMA, Tumor Site: Type of Lesion: ESOPHAGUS: PAPILLOMA OR CARCINOMA, STOMACH: SQUAMOUS CELL CARCINOMA, LIVER: HEPATOCELLULAR TUMOR, LUNG: ALVEOLAR ADENOMA) | carcinogen call (Species: MOUSE, Strain/Sex: NZC/FEMALE, Dose: 0, 1.56 NMOL IN DRINKING WATER 5D/WK FOR 8 WK FOR A TOTAL DOSE OF 0, 5.3 MILLIMOLAR/KG (STUDY DURATION: 600-800 D), Dose: 0, 1.56 NMOL IN DRINKING WATER 5D/WK FOR 8 WK FOR A TOTAL DOSE OF 0, 5.3 MILLIMOLAR/KG (STUDY DURATION: 600-800 D), Tumor Site: Type of Lesion: ESOPHAGUS: CARCINOMA OR PAPILLOMA, STOMACH: SQUAMOUS CELL CARCINOMA, LIVER: HEPATOCELLULAR TUMOR, Tumor Site: Type of Lesion: ESOPHAGUS: CARCINOMA OR PAPILLOMA, STOMACH: SQUAMOUS CELL CARCINOMA, LIVER: HEPATOCELLULAR TUMOR) | carcinogen call (Species: MOUSE, Strain/Sex: NZC/MALE, Dose: 0, 1.56 NMOL IN DRINKING WATER 5D/WK FOR 8 WK FOR A TOTAL DOSE OF 0, 6 MILLIMOLAR/KG (STUDY DURATION: 600-800 D), Dose: 0, 1.56 NMOL IN DRINKING WATER 5D/WK FOR 8 WK FOR A TOTAL DOSE OF 0, 6 MILLIMOLAR/KG (STUDY DURATION: 600-800 D), Tumor Site: Type of Lesion: OROPHARYNX: PAPILLOMA OR CARCINOMA, ESOPHAGUS: PAPILLOMA OR CARCINOMA, STOMACH: SQUAMOUS CELL CARCINOMA, LIVER: HEPATOCE, Tumor Site: Type of Lesion: OROPHARYNX: PAPILLOMA OR CARCINOMA, ESOPHAGUS: PAPILLOMA OR CARCINOMA, STOMACH: SQUAMOUS CELL CARCINOMA, LIVER: HEPATOCE) | carcinogen call (Species: MOUSE, Strain/Sex: NZO/FEMALE, Dose: 0, 1.56 NMOL IN DRINKING WATER 5D/WK FOR 8 WK FOR A TOTAL DOSE OF 0: 6.3 MILLIMOLAR/KG (STUDY DURATION: 600-800 D), Tumor Site: Type of Lesion: OROPHARYNX: PAPILLOMA OR CARCINOMA, ESOPHAGUS: PAPILLOMA OR CARCINOMA, STOMACH: SQUAMOUS CELL CARCINOMA, LIVER: HEPATOCE, Tumor Site: Type of Lesion: OROPHARYNX: PAPILLOMA OR CARCINOMA, ESOPHAGUS: PAPILLOMA OR CARCINOMA, STOMACH: SQUAMOUS CELL CARCINOMA, LIVER: HEPATOCE) | carcinogen call (Species: MOUSE, Strain/Sex: NZO/FEMALE, Dose: 0, 50 MG/L IN DRINKING WATER 5 D/WK FOR 32 WK (TOTAL DOSE: 52 MG) (STUDY DURATION: 1.5 YR), Tumor Site: Type of Lesion: OROPHARYNX: SQUAMOUS CELL CARCINOMA, SQUAMOUS CELL ADENOMA, STOMACH: SQUAMOUS CELL CARCINOMA, SQUAMOUS CELL ADENOMA, ESO, Tumor Site: Type of Lesion: OROPHARYNX: SQUAMOUS CELL CARCINOMA, SQUAMOUS CELL ADENOMA, STOMACH: SQUAMOUS CELL CARCINOMA, SQUAMOUS CELL ADENOMA, ESO) | carcinogen call (Species: MOUSE, Strain/Sex: NZO/FEMALE, Dose: 0, 200 MG/L IN DRINKING WATER 5 D/WK FOR 8 WK (TOTAL DOSE: 52 MG) (STUDY DURATION: 2 YR), Tumor Site: Type of Lesion: OROPHARYNX: SQUAMOUS CELL CARCINOMA, SQUAMOUS CELL ADENOMA, STOMACH: SQUAMOUS CELL CARCINOMA, SQUAMOUS CELL ADENOMA, ESO, Tumor Site: Type of Lesion: OROPHARYNX: SQUAMOUS CELL CARCINOMA, SQUAMOUS CELL ADENOMA, STOMACH: SQUAMOUS CELL CARCINOMA, SQUAMOUS CELL ADENOMA, ESO) | carcinogen call (Species: MOUSE, Strain/Sex: NZO/MALE, Dose: 0, 1.56 NMOL IN DRINKING WATER 5D/WK FOR 8 WK FOR A TOTAL DOSE OF 0, 6.1 MILLIMOLAR/KG (STUDY DURATION: 600-800 D), Dose: 0, 1.56 NMOL IN DRINKING WATER 5D/WK FOR 8 WK FOR A TOTAL DOSE OF 0, 6.1 MILLIMOLAR/KG (STUDY DURATION: 600-800 D), Tumor Site: Type of Lesion: OROPHARYNX: PAPILLOMA OR CARCINOMA, ESOPHAGUS: PAPILLOMA OR CARCINOMA, STOMACH: SQUAMOUS CELL CARCINOMA, LIVER: HEPATOCE, Tumor Site: Type of Lesion: OROPHARYNX: PAPILLOMA OR CARCINOMA, ESOPHAGUS: PAPILLOMA OR CARCINOMA, STOMACH: SQUAMOUS CELL CARCINOMA, LIVER: HEPATOCE) | carcinogen call (Species: MOUSE, Strain/Sex: NZO/MALE, Dose: 0, 50 MG/L IN DRINKING WATER 5 D/WK FOR 52 WK (TOTAL DOSE: 52 MG) (STUDY DURATION: 1.5 YR), Tumor Site: Type of Lesion: OROPHARYNX: SQUAMOUS CELL CARCINOMA, SQUAMOUS CELL ADENOMA, STOMACH: SQUAMOUS CELL CARCINOMA, SQUAMOUS CELL ADENOMA, ESO, Tumor Site: Type of Lesion: OROPHARYNX: SQUAMOUS CELL CARCINOMA, SQUAMOUS CELL ADENOMA, STOMACH: SQUAMOUS CELL CARCINOMA, SQUAMOUS CELL ADENOMA, ESO) | carcinogen call (Species: MOUSE, Strain/Sex: NZO/MALE, Dose: 0, 200 MG/L IN DRINKING WATER 5 D/WK FOR 8 WK (TOTAL DOSE: 52 MG) (STUDY DURATION: 2 YR), Tumor Site: Type of Lesion: OROPHARYNX: SQUAMOUS CELL CARCINOMA, SQUAMOUS CELL ADENOMA, STOMACH: SQUAMOUS CELL CARCINOMA, SQUAMOUS CELL ADENOMA, ESO, Tumor Site: Type of Lesion: OROPHARYNX: SQUAMOUS CELL CARCINOMA, SQUAMOUS CELL ADENOMA, STOMACH: SQUAMOUS CELL CARCINOMA, SQUAMOUS CELL ADENOMA, ESO) | carcinogen call (Species: MOUSE, Strain/Sex: NZY/FEMALE, Dose: 0, 1.56 NMOL IN DRINKING WATER 5D/WK FOR 8 WK FOR A TOTAL DOSE OF 0, 5.2 MILLIMOLAR/KG (STUDY DURATION: 600-800 D), Dose: 0, 1.56 NMOL IN DRINKING WATER 5D/WK FOR 8 WK FOR A TOTAL DOSE OF 0, 5.2 MILLIMOLAR/KG (STUDY DURATION: 600-800 D), Tumor Site: Type of Lesion: ESOPHAGUS: PAPILLOMA OR CARCINOMA, STOMACH: SQUAMOUS CELL CARCINOMA) | carcinogen call (Species: MOUSE, Strain/Sex: NZY/MALE, Dose: 0, 1.56 NMOL IN DRINKING WATER 5D/WK FOR 8 WK FOR A TOTAL DOSE OF 0, 5.4 MILLIMOLAR/KG (STUDY DURATION: 600-800 D), Dose: 0, 1.56 NMOL IN DRINKING WATER 5D/WK FOR 8 WK FOR A TOTAL DOSE OF 0, 5.4 MILLIMOLAR/KG (STUDY DURATION: 600-800 D), Tumor Site: Type of Lesion: ESOPHAGUS: PAPILLOMA OR CARCINOMA, STOMACH: SQUAMOUS CELL CARCINOMA, LIVER: HEPATOCELLULAR TUMOR, Tumor Site: Type of Lesion: ESOPHAGUS: PAPILLOMA OR CARCINOMA, STOMACH: SQUAMOUS CELL CARCINOMA, LIVER: HEPATOCELLULAR TUMOR) | carcinogen call (Species: RAT, Strain/Sex: F344/FEMALE, Dose: 0.9 MM (112 MG/L) IN DRINKING WATER 5/WK FOR 28 WK, Tumor Site: Type of Lesion: LIVER: CARCINOMA, SARCOMA, ESOPHAGUS: PAPILLOMA, CARCINOMA) | carcinogen call (Species: MOUSE, Strain/Sex: B6C3F1/FEMALE, Dose: 0, 0.05, 0.10% OF DIET, TWA, Dose: 0, 0.05, 0.10% OF DIET, TWA) | carcinogen call (Species: MOUSE, Strain/Sex: B6C3F1/MALE, Dose: 0, 0.10, 0.19% OF DIET, TWA, Dose: 0, 0.10, 0.19% OF DIET, TWA) | carcinogen call (Species: RAT, Strain/Sex: F344/FEMALE, Dose: 0, 0.05, 0.10% OF DIET, TWA, Dose: 0, 0.05, 0.10% OF DIET, TWA) | carcinogen call (Species: RAT, Strain/Sex: F344/MALE, Dose: 0, 0.05, 0.10% OF DIET, TWA, Dose: 0, 0.05, 0.10% OF DIET, TWA)
O=NN1CCCCCC1 | active; positive | active; positive | active; positive | active; positive | active; positive | active; positive | active; positive | active; positive | active; positive | active; positive | active; positive | active; positive | active; positive |  |  |  | 
CN(C)c1ccc(N=NS(=O)(=O)O)cc1 |  |  |  |  |  |  |  |  |  |  |  |  |  | inactive; negative | inactive; negative | inactive; negative | inactive; negative
